Measured values: patent publication US5401648A, “Peptides having peptidyl transferase inhibiting activity and methods of use thereof” (University of Maryland College Park, priority 1993, dated 1995)

Columns and labels:
[1] = system: peptidyl transferase activity of the 50S subunits; experiment: Fragment reaction peptidyl transferase assay with dissociated 50S subunits; assay type: biochemical, B. subtilis BR151
Protocol: (§1) The fragment reaction was used to assay peptidyl transferase activity. Reaction mixes consisted of 60 mM Tris-HCl (pH 7.4), 400 mM KCl, 20 mM magnesium sulfate, and 1 mM neutralized puromycin in 50 μl, to which was added 25 μl absolute ethanol. Unless specifically noted, 70S ribosomes purified from B. subtilis BR151 as described in Spedding^1/ were added to 0.55 uM ^35 S-labeled N-formylmethionine, charged to tRNA and digested with endonuclease T1 as described by Marcker^2/, was added to each reaction at 1×10^6 to 2×10^6 cpm.
(§2) Peptide inhibitors were typically preincubated with the ribosomes prior to addition to the other reactants. Antibiotic inhibitors such as chloramphenicol were added to reaction mixes with the ribosomes but without the preincubation step. […] Peptidyl transferase reaction mixes were incubated on ice for 1 h, and were terminated by addition of 50 μl of 0.3M sodium acetate saturated with magnesium sulfate followed by 1 ml of ethyl acetate. The ethyl acetate phase was counted for radioactivity. All peptidyl transferase assays were performed in duplicate or triplicate, and the replicates varied by less than 5%. In separate experiments, the inhibitory activity of a single peptide preparation on a single ribosome preparation varied by as much as 10%.
The 50S subunit contains the target for the 5-mer peptide. […]

[2] = system: peptidyl transferase; experiment: Fragment reaction peptidyl transferase assay with 70S ribosomes; assay type: biochemical, B. subtilis BR151; details: preincubation of inhibitor with ribosomes prior to addition to other reactants
Protocol: as §1, §2

Row | Compound | effect on the peptidyl transferase activity of the 50S subunits [1] | effect of preincubation with ribosomes on inhibitory effect on peptidyl transferase [2]
1 | 4-mer: 4-mer comparison peptide (SEQ ID NO: 5), sequence not printed in the text (MVKT) | little effect | 
2 | O=C(N[C@H](CO)[C@H](O)c1ccc([N+](=O)[O-])cc1)C(Cl)Cl [chloramphenicol] |  | failed to increase
